ChEMBL document CHEMBL4130353, “2-Substituted 3,7,8-trimethylnaphtho[1,2-b]furan-4,5-diones as specific L-shaped NQO1-mediated redox modulators for the treatment of non-small cell lung cancer” (Eur J Med Chem, 2017)
Values after ≈ are worked out from the molar mass of the structure shown. Active and inactive are the calls of the source. No cut-off for these calls is given here.

Experiments:
A549/TR = test: Cytotoxicity against human A549/TR cells assessed as cell growth inhibition preincubated for 24 hrs followed by compound washout measured after 72 hrs by MTT assay; format: functional, cell-based
[1] = biological target: NAD(P)H dehydrogenase [quinone] 1 (Homo sapiens) (UniProt P15559); test: Substrate activity at recombinant human NQO1 expressed in Escherichia coli assessed as reduction rate by measuring umol of NADPH utilized per umol of enzyme at 10 uM preincubated for 3 mins followed by NADPH addition measured at 2 secs interval for 5 mins by UV-Vis spectroscopy
Chain of NAD(P)H dehydrogenase [quinone] 1 (Homo sapiens) (P15559 whole entry): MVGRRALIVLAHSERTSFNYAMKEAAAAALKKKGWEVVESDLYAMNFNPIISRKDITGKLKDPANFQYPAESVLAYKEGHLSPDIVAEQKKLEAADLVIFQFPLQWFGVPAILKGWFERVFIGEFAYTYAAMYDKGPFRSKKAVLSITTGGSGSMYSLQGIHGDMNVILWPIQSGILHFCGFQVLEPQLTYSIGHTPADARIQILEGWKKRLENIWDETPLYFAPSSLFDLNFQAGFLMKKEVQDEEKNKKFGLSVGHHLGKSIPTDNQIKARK

[2] = Effective permeability of the compound at pH 7.4 by PAMPA assay; format: ADME; conditions: read-out: Peff
[3] = Intrinsic solubility of the compound; format: physicochemical; conditions: read-out: Intrinsic_solubility
[4] = Lipophilicity, log D of the compound at pH 7.4; format: physicochemical; conditions: buffer
[5] = biological target: T1, NADPH--cytochrome P450 reductase (Homo sapiens, UniProt P16435); test: Substrate activity at human CPR expressed in baculovirus expression system assessed as reduction rate by measuring umol of NADPH utilized per umol of enzyme at 10 uM preincubated for 3 mins followed by NADPH addition measured at 2 secs interval for 5 mins by UV-Vis spectroscopy; format: ADME
T1 sequence (P16435 whole entry): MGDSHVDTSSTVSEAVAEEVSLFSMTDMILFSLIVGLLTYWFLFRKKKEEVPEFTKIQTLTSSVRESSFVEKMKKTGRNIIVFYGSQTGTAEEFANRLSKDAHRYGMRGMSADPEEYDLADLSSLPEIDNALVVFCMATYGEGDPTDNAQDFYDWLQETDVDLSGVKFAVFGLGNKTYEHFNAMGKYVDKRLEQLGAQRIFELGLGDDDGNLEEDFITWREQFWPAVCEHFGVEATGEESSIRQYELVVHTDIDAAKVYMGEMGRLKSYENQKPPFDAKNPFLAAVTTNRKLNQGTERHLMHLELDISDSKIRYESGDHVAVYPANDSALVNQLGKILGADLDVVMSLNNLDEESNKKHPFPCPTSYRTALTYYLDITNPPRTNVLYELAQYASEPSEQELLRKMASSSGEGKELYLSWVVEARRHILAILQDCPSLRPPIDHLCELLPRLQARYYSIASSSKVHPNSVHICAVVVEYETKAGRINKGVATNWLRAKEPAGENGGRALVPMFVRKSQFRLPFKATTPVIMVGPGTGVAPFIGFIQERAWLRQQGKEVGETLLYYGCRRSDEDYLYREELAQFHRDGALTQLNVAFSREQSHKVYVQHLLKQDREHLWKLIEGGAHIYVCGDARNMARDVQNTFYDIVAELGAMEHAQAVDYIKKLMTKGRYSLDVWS

[6] = Solubility of the compound in diluted HCl buffer at pH 3; format: physicochemical
Homo sapiens = organism: Homo sapiens; test: Selectivity ratio for substrate activity at recombinant human NQO1 to substrate activity at human CPR
A549 [7] = test: Antitumor activity against human A549 cells xenografted in athymic nude mouse assessed as tumor growth inhibition at 50 mg/kg, iv administered every other day for 3 weeks measured every day during compound dosing relative to control; format: functional; conditions: 504 h, read-out: TGI
[8] = biological target: NAD(P)H dehydrogenase [quinone] 1 (Homo sapiens) (UniProt P15559); test: Substrate activity at NQO1 in human A549 cells assessed as induction of enzyme-catalyzed lipid peroxidation by measuring MDA equivalents per protein at 10 uM after 24 hrs by TBARS assay; format: cell-based
A549 [9] = test: Antitumor activity against human A549 cells xenografted in athymic nude mouse assessed as tumor growth inhibition at 30 mg/kg, iv administered every other day for 3 weeks measured every day during compound dosing relative to control; format: functional; conditions: 504 h, read-out: TGI
Danio rerio = organism: Danio rerio; test: Hepatotoxicity in 48 hrs post fertilized transgenic liver zebrafish larvae model expressing LFABP:EGFP protein at 1 uM measured after 48 hrs post dose by fluorescence based assay; format: organism-based; conditions: in vivo
[10] = biological target: NAD(P)H dehydrogenase [quinone] 1 (Homo sapiens) (UniProt P15559); test: Substrate activity at NQO1 in human A549 cells assessed as induction of enzyme-catalyzed ROS production at 10 uM after 1 to 3 hrs by DCFH-DA-based flow cytometry; format: cell-based
L02 = test: Induction of intracellular ROS levels in human L02 cells at 10 uM after 1 to 3 hrs by DCFH-DA-based flow cytometry; format: cell-based; conditions: l02, 10 µM

SMILES | Activity [1] | solubility [3] | solubility [6] | other results
CC(=O)O[C@H]1C(=O)[C@@]2(C)[C@H]([C@H](OC(=O)c3ccccc3)[C@]3(O)C[C@H](OC(=O)[C@H](O)[C@@H](NC(=O)c4ccccc4)c4ccccc4)C(C)=C1C3(C)C)[C@]1(OC(C)=O)CO[C@@H]1C[C@@H]2O [PACLITAXEL] | – | – | – | IC50 (A549/TR): 28 µM
Cc1cc2c(cc1C)-c1oc(CN3CCN(c4ccccc4)CC3)c(C)c1C(=O)C2=O | 1050 µmol/min | – | – | –
Cc1cc2c(cc1C)-c1oc(CN3CCN(Cc4ccccc4)CC3)c(C)c1C(=O)C2=O | 1190 µmol/min | – | – | –
Cc1cc2c(cc1C)-c1oc(C(=O)N3CCN(c4ccc(F)cc4)CC3)c(C)c1C(=O)C2=O | 1190 µmol/min | – | – | –
Cc1cc2c(cc1C)-c1oc(CNc3cccc(F)c3)c(C)c1C(=O)C2=O | 1340 µmol/min | 51.2 µg/mL (≈ 141 µM) | 100 to 500 µg/mL (≈ 275 to 1380 µM) | Papp [2]: 66.2 ×10⁻⁶ cm/s; logD [4]: 4.21; Activity [5]: 112 µmol NADPH/min/µmol enzyme; Selectivity ratio (Homo sapiens): 12
Cc1cc2c(cc1C)-c1oc(CNc3ccc(C#N)cc3)c(C)c1C(=O)C2=O | 898 µmol/min | – | – | –
Cc1cc2c(cc1C)-c1oc(CNc3ccc(F)cc3F)c(C)c1C(=O)C2=O | 1180 µmol/min | – | – | –
COc1ccccc1NCc1oc2c(c1C)C(=O)C(=O)c1cc(C)c(C)cc1-2 | 1040 µmol/min | – | – | –
Cc1cc2c(cc1C)-c1oc(C(=O)N3CCN(Cc4ccccc4)CC3)c(C)c1C(=O)C2=O | 1360 µmol/min | 41.1 µg/mL (≈ 92.9 µM) | 100 to 500 µg/mL (≈ 226 to 1130 µM) | Papp [2]: 11.9 ×10⁻⁶ cm/s; logD [4]: 4.82; Activity [5]: 90 µmol NADPH/min/µmol enzyme; Selectivity ratio (Homo sapiens): 15.1
COc1cccc(NCc2oc3c(c2C)C(=O)C(=O)c2cc(C)c(C)cc2-3)c1 | 955 µmol/min | – | – | –
Cc1cc2c(cc1C)-c1occ(C)c1C(=O)C2=O | – | 28.6 µg/mL (≈ 119 µM) | < 100 µg/mL | Papp [2]: 43.1 ×10⁻⁶ cm/s; logD [4]: 3.65; Activity [5]: 142 µmol NADPH/min/µmol enzyme
Cc1cc2c(cc1C)-c1oc(CNc3ccc(F)cc3)c(C)c1C(=O)C2=O | 1330 µmol/min | 48.5 µg/mL (≈ 133 µM) | 100 to 500 µg/mL (≈ 275 to 1380 µM) | Papp [2]: 42 ×10⁻⁶ cm/s; logD [4]: 4.03; Activity [5]: 105 µmol NADPH/min/µmol enzyme; Selectivity ratio (Homo sapiens): 12.7
Cc1cc2c(cc1C)-c1oc(CNc3ccc(Cl)c(Cl)c3)c(C)c1C(=O)C2=O | 847 µmol/min | – | – | –
COc1ccc(NCc2oc3c(c2C)C(=O)C(=O)c2cc(C)c(C)cc2-3)cc1 | 1120 µmol/min | – | – | –
Cc1cc2c(cc1C)-c1oc(CN3CCN(c4ccc(F)cc4)CC3)c(C)c1C(=O)C2=O | 1460 µmol/min | 151 µg/mL (≈ 349 µM) | 500 to 1000 µg/mL (≈ 1160 to 2310 µM) | Papp [2]: 28.3 ×10⁻⁶ cm/s; logD [4]: 2.89; Activity [5]: 159 µmol NADPH/min/µmol enzyme; Selectivity ratio (Homo sapiens): 9.19
Cc1cc2c(cc1C)-c1oc(CNCc3ccc(F)cc3)c(C)c1C(=O)C2=O | 1200 µmol/min | – | – | –
Cc1cc2c(cc1C)-c1oc(CNc3ccc(Br)cc3)c(C)c1C(=O)C2=O | 1150 µmol/min | – | – | –
Cc1cc2c(cc1C)-c1oc(CNc3ccc(F)c(Cl)c3)c(C)c1C(=O)C2=O | 940 µmol/min | – | – | –
Cc1cc2c(cc1C)-c1oc(C(=O)Nc3ccc(F)cc3)c(C)c1C(=O)C2=O | 1260 µmol/min | – | – | –
Cc1cc2c(cc1C)-c1oc(CNc3ccc(F)cc3C)c(C)c1C(=O)C2=O | 1320 µmol/min | 33.1 µg/mL (≈ 87.7 µM) | < 100 µg/mL | logD [4]: 3.31; Activity [5]: 127 µmol NADPH/min/µmol enzyme; Selectivity ratio (Homo sapiens): 10.3
Cc1cc2c(cc1C)-c1oc(CNc3ccc(Cl)cc3Cl)c(C)c1C(=O)C2=O | 1060 µmol/min | – | – | –
Cc1cc2c(cc1C)-c1oc(C(=O)NCc3ccc(F)cc3)c(C)c1C(=O)C2=O | 1290 µmol/min | – | – | –
CC1(C)CCC2=C(O1)c1ccccc1C(=O)C2=O [LAPACHONE] | – | 38 µg/mL (≈ 157 µM) | < 100 µg/mL | Papp [2]: 46.4 ×10⁻⁶ cm/s; inhibition in vivo at 50 mg/kg (A549 [7]): 84.9%; Activity [8]: 15.9 nmol/mg; inhibition in vivo at 30 mg/kg (A549 [9]): 78.5%; Activity (Danio rerio): Toxic; Activity [10]: Active; Activity (L02): Toxic
